In PubChem BioAssay AID1195 (EPA DSSTox, 2008):

System: human maximum recommended daily dose, FDA database
Assay: DSSTox (FDAMDD) FDA Maximum (Recommended) Daily Dose Database
Settings: hits give low values
Summary of the method: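 MRDD values come from clinical trials with daily oral dosing, usually for 3–12 months, for the average adult, in mg/day converted to mg/kg-bw/day assuming 60 kg. Antineoplastic mg/m2 doses are divided by 37. Activity score maps log10(1/MRDD mmol) onto 1–100.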

[1] = TherapeuticCategory: anti inflammatory
[2] = TherapeuticCategory: antibacterial
[3] = TherapeuticCategory: antitussive

Q: How did the maximum recommended daily dose (mmol/kg-bw/day) (TherapeuticCategory: antimigraine) turn out when `CN(C)CCc1c[nH]c2ccc(Cn3cncn3)cc12` was run?
A: Its maximum recommended daily dose (mmol/kg-bw/day) is 0.00186.

Q: How did the maximum recommended daily dose (mmol/kg-bw/day) (TherapeuticCategory: antihypertensive) turn out when `O=C1N(Cc2ccccc2)C2C[S+]3CCCC3C2N1Cc1ccccc1` (stereo not drawn) was run?
A: Its maximum recommended daily dose (mmol/kg-bw/day) is 0.000112.

Q: How did the maximum recommended daily dose (mmol/kg-bw/day) [1] turn out when `Cc1ccc2c(-c3ccccc3)nc(=O)n(C(C)C)c2c1` was run?
A: Its maximum recommended daily dose (mmol/kg-bw/day) is 0.0719.

Q: With `CN[C@@H]1[C@@H](O)[C@@H](O[C@@H]2[C@@H](O)[C@H](O[C@H]3O[C@H](C(C)N)CC[C@H]3N)[C@@H](N)C[C@H]2N)OC[C@]1(C)O` (stereo partly drawn) as the molecule, how does the maximum recommended daily dose (mmol/kg-bw/day) [2] read?
A: The maximum recommended daily dose (mmol/kg-bw/day) was 0.00647.

Q: Which maximum recommended daily dose (mmol/kg-bw/day) [3] does the source give for `COc1ccc2c(c1)[C@]13CCCC[C@@H]1[C@H](C2)N(C)CC3` here?
A: Its maximum recommended daily dose (mmol/kg-bw/day) is 0.00737.

Q: Which maximum recommended daily dose (mmol/kg-bw/day) (TherapeuticCategory: antiviral) does the source give for `NC(=O)c1ncn([C@@H]2O[C@H](CO)[C@@H](O)[C@H]2O)n1` here?
A: The maximum recommended daily dose (mmol/kg-bw/day) was 0.819.

Q: With `COc1ccccc1OCCNCC(O)COc1cccc2[nH]c3ccccc3c12` (stereo not drawn) as the molecule, how does the maximum recommended daily dose (mmol/kg-bw/day) (TherapeuticCategory: antihypertensive, antianginal) read?
A: Its maximum recommended daily dose (mmol/kg-bw/day) is 0.00103.

Q: `N[C@@H](Cc1c[nH]c2ccccc12)C(=O)O` was tested. Which maximum recommended daily dose (mmol/kg-bw/day) (TherapeuticCategory: antidepressant, nutrient) did it give?
A: Its maximum recommended daily dose (mmol/kg-bw/day) is 0.49.

Q: With `CCCC(CCC)C(N)=O` as the molecule, how does the maximum recommended daily dose (mmol/kg-bw/day) (TherapeuticCategory: anticonvulsant) read?
A: The maximum recommended daily dose (mmol/kg-bw/day) was 0.232.

Q: With `CC(N)Cc1ccc(O)cc1` (stereo not drawn) as the molecule, how does the maximum recommended daily dose (mmol/kg-bw/day) (TherapeuticCategory: adrenergic, mydriatic) read?
A: The maximum recommended daily dose (mmol/kg-bw/day) was 0.0265.

Q: `COc1cccc(C(=O)CCN[C@@H](C)[C@H](O)c2ccccc2)c1` was tested. Which maximum recommended daily dose (mmol/kg-bw/day) (TherapeuticCategory: antianginal) did it give?
A: The maximum recommended daily dose (mmol/kg-bw/day) was 0.00255.

Q: For `CCCC(=O)O[C@H]1[C@H](C)O[C@@H](O[C@H]2[C@H](N(C)C)[C@@H](O)[C@H](O[C@H]3[C@@H](CC=O)C[C@@H](C)[C@@H](O)/C=C/C=C/C[C@@H](C)OC(=O)C[C@@H](O)[C@@H]3OC)O[C@@H]2C)C[C@@]1(C)OC(=O)CC`, which maximum recommended daily dose (mmol/kg-bw/day) [2] is on record?
A: Its maximum recommended daily dose (mmol/kg-bw/day) is 0.0242.

Q: Which maximum recommended daily dose (mmol/kg-bw/day) (TherapeuticCategory: glucocorticoid) does the source give for `C[C@H]1C[C@@H]2[C@H]([C@@H](O)C[C@@]3(C)[C@H]2CC[C@]3(O)C(=O)COC(=O)CCCCCCC(=O)N(C)CCS(=O)(=O)O)[C@@]2(C)C=CC(=O)C=C12` here?
A: Its maximum recommended daily dose (mmol/kg-bw/day) is 0.0061.

Q: How did the maximum recommended daily dose (mmol/kg-bw/day) [2] turn out when `NC[C@H]1O[C@H](O[C@H]2[C@H](O)[C@@H](O[C@H]3O[C@H](CO)[C@@H](O)[C@H](N)[C@H]3O)[C@H](N)C[C@@H]2N)[C@H](O)[C@@H](O)[C@@H]1O` was run?
A: The maximum recommended daily dose (mmol/kg-bw/day) was 0.031.

Q: With `c1ccc([C@H]2CN3CCSC3=N2)cc1` as the molecule, how does the maximum recommended daily dose (mmol/kg-bw/day) (TherapeuticCategory: anthelmintic) read?
A: The maximum recommended daily dose (mmol/kg-bw/day) was 0.00408.

Q: With `CCC[C@@H]1C[C@@H](C(=O)N[C@@H]([C@H]2O[C@H](SC)[C@H](O)[C@@H](O)[C@H]2O)[C@H](C)Cl)N(C)C1` as the molecule, how does the maximum recommended daily dose (mmol/kg-bw/day) [2] read?
A: The maximum recommended daily dose (mmol/kg-bw/day) was 0.0706.

Q: `CCCCNc1ccc(C(=O)OCCOCCOCCOCCOCCOCCOCCOCCOCCOC)cc1` was tested. Which maximum recommended daily dose (mmol/kg-bw/day) [3] did it give?
A: Its maximum recommended daily dose (mmol/kg-bw/day) is 0.0166.

Q: With `CC[C@@H](CO)NCCN[C@@H](CC)CO` as the molecule, how does the maximum recommended daily dose (mmol/kg-bw/day) [2] read?
A: Its maximum recommended daily dose (mmol/kg-bw/day) is 0.122.

Q: `CN(C)CCOC(c1ccccc1)c1ccc(Br)cc1` (stereo not drawn) was tested. Which maximum recommended daily dose (mmol/kg-bw/day) (TherapeuticCategory: antihistaminic) did it give?
A: The maximum recommended daily dose (mmol/kg-bw/day) was 0.00748.

Q: `CCC(OC(C)=O)C(CC(C)N(C)C)(c1ccccc1)c1ccccc1` (stereo not drawn) was tested. Which maximum recommended daily dose (mmol/kg-bw/day) (TherapeuticCategory: none) did it give?
A: Its maximum recommended daily dose (mmol/kg-bw/day) is 0.00659.

Q: With `NS(=O)(=O)c1cc2c(cc1C(F)(F)F)NCNS2(=O)=O` as the molecule, how does the maximum recommended daily dose (mmol/kg-bw/day) (TherapeuticCategory: antihypertensive, diuretic) read?
A: The maximum recommended daily dose (mmol/kg-bw/day) was 0.0101.

Q: For `C=CCN(C1=NCCN1)c1c(Cl)cccc1Cl`, which maximum recommended daily dose (mmol/kg-bw/day) (TherapeuticCategory: antiarrhythmic) is on record?
A: The maximum recommended daily dose (mmol/kg-bw/day) was 0.00492.

Q: How did the maximum recommended daily dose (mmol/kg-bw/day) (TherapeuticCategory: none) turn out when `OC[C@H]1O[C@H](O[C@H]2[C@H](O)[C@@H](O)[C@H](O)O[C@@H]2CO)[C@H](O)[C@@H](O)[C@@H]1O` was run?
A: Its maximum recommended daily dose (mmol/kg-bw/day) is 0.292.

Q: For `CC(C)(N)Cc1ccccc1Cl`, which maximum recommended daily dose (mmol/kg-bw/day) (TherapeuticCategory: anorexic) is on record?
A: The maximum recommended daily dose (mmol/kg-bw/day) was 0.00454.

Q: How did the maximum recommended daily dose (mmol/kg-bw/day) (TherapeuticCategory: anxiolytic) turn out when `O=C1Nc2ccc(Cl)cc2C(c2ccccc2Cl)=NC1O` (stereo not drawn) was run?
A: Its maximum recommended daily dose (mmol/kg-bw/day) is 0.00052.

Q: With `CCC(=O)c1ccc2c(c1)N(CC(C)N(C)C)c1ccccc1S2` (stereo not drawn) as the molecule, how does the maximum recommended daily dose (mmol/kg-bw/day) (TherapeuticCategory: sedative, hypnotic) read?
A: Its maximum recommended daily dose (mmol/kg-bw/day) is 0.00245.

Q: With `CC(C(=O)O)c1ccc2oc(-c3ccc(Cl)cc3)nc2c1` (stereo not drawn) as the molecule, how does the maximum recommended daily dose (mmol/kg-bw/day) (TherapeuticCategory: analgesic, anti inflammatory) read?
A: The maximum recommended daily dose (mmol/kg-bw/day) was 0.0331.

Q: For `O=C(O)Cc1ccccc1Nc1c(Cl)cccc1Cl`, which maximum recommended daily dose (mmol/kg-bw/day) [1] is on record?
A: The maximum recommended daily dose (mmol/kg-bw/day) was 0.0127.

Q: `CC(=O)Nc1nnc(S(N)(=O)=O)s1` was tested. Which maximum recommended daily dose (mmol/kg-bw/day) (TherapeuticCategory: carbonic anhydrase inhibitor, diuretic) did it give?
A: The maximum recommended daily dose (mmol/kg-bw/day) was 0.0751.

Q: Which maximum recommended daily dose (mmol/kg-bw/day) (TherapeuticCategory: diagnostic aid) does the source give for `CNC(=O)c1c(I)c(NC(=O)CCCCC(=O)Nc2c(I)c(C(=O)O)c(I)c(C(=O)NC)c2I)c(I)c(C(=O)O)c1I` here?
A: The maximum recommended daily dose (mmol/kg-bw/day) was 0.0798.

Q: How did the maximum recommended daily dose (mmol/kg-bw/day) (TherapeuticCategory: antigonadotropin) turn out when `C#C[C@]1(O)CC[C@H]2[C@@H]3CCC4=CC(=O)CCC4=C3C=C[C@@]21CC` was run?
A: Its maximum recommended daily dose (mmol/kg-bw/day) is 0.000135.

Q: How did the maximum recommended daily dose (mmol/kg-bw/day) (TherapeuticCategory: bronchodilator) turn out when `Cn1c(=O)c2c(ncn2CC(O)CO)n(C)c1=O` (stereo not drawn) was run?
A: The maximum recommended daily dose (mmol/kg-bw/day) was 0.236.

Q: For `COc1cc(NS(C)(=O)=O)ccc1Nc1c2ccccc2nc2ccccc12`, which maximum recommended daily dose (mmol/kg-bw/day) (TherapeuticCategory: antineoplastic) is on record?
A: The maximum recommended daily dose (mmol/kg-bw/day) was 0.00823.

Q: For `NC[C@H]1O[C@H](O[C@H]2[C@H](O)[C@@H](O[C@H]3O[C@H](CO)[C@@H](O)[C@H](N)[C@H]3O)[C@H](N)C[C@@H]2N)[C@H](N)C[C@@H]1O`, which maximum recommended daily dose (mmol/kg-bw/day) [2] is on record?
A: The maximum recommended daily dose (mmol/kg-bw/day) was 0.0193.

Q: With `Cc1ccc(-c2cc(C(F)(F)F)nn2-c2ccc(S(N)(=O)=O)cc2)cc1` as the molecule, how does the maximum recommended daily dose (mmol/kg-bw/day) (TherapeuticCategory: anti inflammatory, antiarthritic) read?
A: The maximum recommended daily dose (mmol/kg-bw/day) was 0.0175.

Q: `Oc1c(I)cc(I)c2cccnc12` was tested. Which maximum recommended daily dose (mmol/kg-bw/day) (TherapeuticCategory: antiamebic) did it give?
A: Its maximum recommended daily dose (mmol/kg-bw/day) is 0.0756.

Q: Which maximum recommended daily dose (mmol/kg-bw/day) (TherapeuticCategory: tranquilizer) does the source give for `CC(=O)c1ccc2c(c1)N(CCCN(C)C)c1ccccc1S2` here?
A: Its maximum recommended daily dose (mmol/kg-bw/day) is 0.000459.

Q: For `COc1cc(C[C@@H]2c3c(cc(OC)c(OC)c3OC)CC[N@@+]2(C)CCCOC(=O)CCC(=O)OCCC[N@@+]2(C)CCc3cc(OC)c(OC)c(OC)c3[C@@H]2Cc2cc(OC)c(OC)c(OC)c2)cc(OC)c1OC`, which maximum recommended daily dose (mmol/kg-bw/day) (TherapeuticCategory: skeletal muscle relaxant, neuromuscular blocker) is on record?
A: Its maximum recommended daily dose (mmol/kg-bw/day) is 4.52e-05.
